Literature values as cited in US20140187520A1, “STABLE INJECTABLE PHARMACEUTICAL COMPOSITION OF VITAMIN D RECEPTOR AGONIST AND PROCESS FOR PREPARATION THEREOF” (PHARMATHEN S.A., priority 2012, published 2014).

solubility in alcohol (alcohol): soluble
solubility in water (water): insoluble
Compound: C[C@H](/C=C/[C@H](C)C(C)(C)O)[C@H]1CC[C@H]2/C(=C/C=C3C[C@@H](O)C[C@H](O)C3)CCC[C@]12C [paricalcitol, 19-nor-1α,3β,25-trihydroxy-9,10-secoergosta-5(Z),7(E), 22(E)-triene]
